Experimental findings from patent US7449465B2, “Triazolopyrimidine derivatives as glycogen synthase kinase 3 inhibitors” (Janssen Pharmaceutica, N.V., priority 2003, dated 2008) are described below.

One test has as its target GSK3β (Homo sapiens, UniProt P49841). As to the kind of experiment: GSK3beta assay (SPA, biotinylated phosphorylated CREB peptide, ATP-P33). The format is biochemical. To be noted: ranges of pIC50 (−log IC50 (M)); 1 μM ATP, room temperature, one hour; read-out: GSK3b pIC50 (converted). As to the method: (§1) GSK3beta assays were performed at room temperature in a 100 μl reaction volume of 25 mM Tris (pH 7.4) containing 10 mM MgCl2.6H2O, 1 mM DTI, 0.1 mgiml BSA, 5% glycerol and containing 5.7 ng/μl GSK3β, 5 μM biotinylated phosphorylated CREB peptide, 1 μM ATP, 0.85 μCi/ml ATP-P^33 and a suitable amount of a test compound of formula (I). After one hour, the reaction was terminated by adding 70 μl of Stop mix (0.1 mM ATP, 5 mg/ml streptavidin coated PVT SPA bead pH 11.0). The beads to which the phosphorylated CREB peptide is attached were allowed to settle overnight and the radioactivity of the beads was counted in a microtiterplate scintillation counter and compared with the results obtained in a control experiment (without the presence of a test compound) in order to determine the percentage of GSK3β inhibition. The IC50 value, i.e. the concentration (M) of the test compound at which 50% of GSK3β is inhibited, was calculated from the dose response curve obtained by performing the above-described GSK3β assay in the presence of different amounts of the test compound.

Another test addresses GSK3alpha (Homo sapiens, UniProt P49840). As to the kind of experiment: GSK3alpha assay (same as the GSK3beta assay, 0.25 ng/μl GSK3alpha). The format is biochemical. To be noted: ranges of pIC50 (−log IC50 (M)), 1 μM ATP, read-out: GSK3a pIC50 (converted). How it is done: as §1
The GSK3alpha assay was performed in the same way as described above for the GSK3beta assay except for the concentration of GSK3alpha which is 0.25 ng/μl.

Chain of GSK3β (P49841 whole entry, species assumed): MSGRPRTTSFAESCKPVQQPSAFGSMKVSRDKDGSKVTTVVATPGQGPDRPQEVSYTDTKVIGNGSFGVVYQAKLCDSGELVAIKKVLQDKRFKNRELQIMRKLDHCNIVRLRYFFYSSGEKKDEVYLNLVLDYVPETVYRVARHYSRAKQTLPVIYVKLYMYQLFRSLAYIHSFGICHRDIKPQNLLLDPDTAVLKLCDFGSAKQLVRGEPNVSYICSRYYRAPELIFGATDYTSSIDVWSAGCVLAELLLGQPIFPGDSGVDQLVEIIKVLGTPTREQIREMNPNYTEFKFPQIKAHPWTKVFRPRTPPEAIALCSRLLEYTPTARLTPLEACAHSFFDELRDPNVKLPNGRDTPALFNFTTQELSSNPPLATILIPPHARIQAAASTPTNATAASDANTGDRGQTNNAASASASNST
Chain of GSK3alpha (P49840 whole entry, species assumed): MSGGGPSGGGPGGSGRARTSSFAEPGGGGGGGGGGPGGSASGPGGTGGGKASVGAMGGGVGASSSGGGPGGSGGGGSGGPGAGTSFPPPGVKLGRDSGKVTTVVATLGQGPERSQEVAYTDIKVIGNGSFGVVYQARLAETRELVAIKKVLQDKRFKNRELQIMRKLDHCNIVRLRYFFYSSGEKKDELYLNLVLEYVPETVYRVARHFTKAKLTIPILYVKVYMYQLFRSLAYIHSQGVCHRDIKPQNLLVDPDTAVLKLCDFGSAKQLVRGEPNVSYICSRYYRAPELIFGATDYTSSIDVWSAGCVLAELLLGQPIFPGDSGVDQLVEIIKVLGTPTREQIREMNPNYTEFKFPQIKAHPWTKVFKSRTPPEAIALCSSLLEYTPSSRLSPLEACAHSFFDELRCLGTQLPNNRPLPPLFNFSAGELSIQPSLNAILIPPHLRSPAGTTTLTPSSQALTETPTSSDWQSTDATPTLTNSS

Take `OCCc1cccc(-n2nnc3cnc(Nc4cccc(-c5nnn[nH]5)c4)nc32)c1` [Compound 75]: the figures for the IC50 on GSK3β and at GSK3alpha were 1e-08 M and 1e-08 to 1e-07 M, respectively.
The corresponding values for `Cn1nnnc1-c1cccc(Nc2ncc3nnn(-c4cccc(CCO)c4)c3n2)c1` [Compound 76] are under 1e-08 M and under 1e-08 M.
Turning to `CN1CCN(c2ccc(Nc3ncc4nnn(-c5cccc(CCO)c5)c4n3)cc2)CC1` [Compound 77], the IC50 at GSK3β and at GSK3alpha was under 1e-08 M each time.
Turning to `CN1CCN(Cc2ccc(Nc3ncc4nnn(-c5cccc(CCO)c5)c4n3)cc2)CC1` [Compound 78], the IC50 on GSK3β and at GSK3alpha was under 1e-08 M each time.
Regarding `OCCc1cccc(-n2nnc3cnc(Nc4ccc(CN5CCC(O)CC5)cc4)nc32)c1` [Compound 79], the IC50 at GSK3β and on GSK3alpha was under 1e-08 M throughout.
As for `O=C(NCCN1CCOCC1)c1ccc(Nc2ncc3nnn(-c4cccc(CCO)c4)c3n2)cc1` [Compound 81], the IC50 at GSK3β and at GSK3alpha was under 1e-08 M in each case.
For the molecule `CN1CCN(CCOc2ccc(Nc3ncc4nnn(-c5cccc(CCO)c5)c4n3)cc2)CC1` [Compound 82], the IC50 at GSK3β was 1e-08 M; at GSK3alpha, under 1e-08 M.
For the molecule `CN1CCN(CCCOc2ccc(Nc3ncc4nnn(-c5cccc(CCO)c5)c4n3)cc2)CC1` [Compound 83], the IC50 on GSK3β and on GSK3alpha was under 1e-08 M each time.
For `OCCc1cccc(-n2nnc3cnc(Nc4ccc(Nc5ncccn5)cc4)nc32)c1` [Compound 84], the IC50 on GSK3β and on GSK3alpha was under 1e-08 M in each case.
Consider `OCCc1ccc(-n2nnc3cnc(Nc4ccc(N5CCOCC5)cc4)nc32)cc1` [Compound 85], for which the IC50 on GSK3β was over 1e-07 M; on GSK3alpha, under 1e-08 M.
As to `N#CCc1cccc(-n2nnc3cnc(Nc4cccc(-c5cnco5)c4)nc32)c1` [Compound 86], the IC50 on GSK3β and at GSK3alpha was under 1e-08 M throughout.
`CN1CCN(Cc2ccc(Nc3ncc4nnn(-c5cccc(CC#N)c5)c4n3)cc2)CC1` [Compound 89]: the results for the IC50 on GSK3β and at GSK3alpha were 1e-08 to 1e-07 M and under 1e-08 M, respectively.
The matching figures for `N#CCc1cccc(-n2nnc3cnc(Nc4ccc(CN5CCC(O)CC5)cc4)nc32)c1` [Compound 90]: under 1e-08 M and under 1e-08 M.
As for `CN1CCN(C(=O)c2ccc(Nc3ncc4nnn(-c5cccc(CC#N)c5)c4n3)cc2)CC1` [Compound 91], the IC50 on GSK3β and on GSK3alpha was under 1e-08 M throughout.
For `N#CCc1cccc(-n2nnc3cnc(Nc4ccc(C(=O)NCCN5CCOCC5)cc4)nc32)c1` [Compound 92], the IC50 on GSK3β and on GSK3alpha was under 1e-08 M throughout.
Consider `CN1CCN(CCOc2ccc(Nc3ncc4nnn(-c5cccc(CC#N)c5)c4n3)cc2)CC1` [Compound 93], for which the IC50 on GSK3β and at GSK3alpha was 1e-08 to 1e-07 M throughout.
On to `CN1CCN(CCCOc2ccc(Nc3ncc4nnn(-c5cccc(CC#N)c5)c4n3)cc2)CC1` [Compound 94], for which the IC50 on GSK3β and at GSK3alpha was under 1e-08 M in each case.
As for `NC(=O)Cc1cccc(-n2nnc3cnc(Nc4cccc(-c5cnco5)c4)nc32)c1` [Compound 95], the IC50 on GSK3β and on GSK3alpha was under 1e-08 M each time.
On to `Nc1nccc(-c2cccc(Nc3ncc4nnn(-c5cccc(CO)c5)c4n3)c2)n1` [Compound 97], for which the IC50 at GSK3β and at GSK3alpha was under 1e-08 M throughout.
As for `COCc1cccc(-n2nnc3cnc(Nc4cccc(-c5cnco5)c4)nc32)c1` [Compound 98], the IC50 on GSK3β and at GSK3alpha was under 1e-08 M throughout.
On to `COCc1cccc(-n2nnc3cnc(Nc4cccc(-c5nnnn5C)c4)nc32)c1` [Compound 99], for which the IC50 on GSK3β and on GSK3alpha was under 1e-08 M throughout.
On to `COCc1cccc(-n2nnc3cnc(Nc4cccc(-c5ccnc(N)n5)c4)nc32)c1` [Compound 100], for which the IC50 on GSK3β and at GSK3alpha was under 1e-08 M in each case.
Take `COCc1cccc(-n2nnc3cnc(Nc4ccc(CN5CCN(C)CC5)cc4)nc32)c1` [Compound 101]: the IC50 is 1e-08 to 1e-07 M at GSK3β and under 1e-08 M on GSK3alpha.
On to `COCc1cccc(-n2nnc3cnc(Nc4ccc(CN5CCC(O)CC5)cc4)nc32)c1` [Compound 102], for which the IC50 at GSK3β and at GSK3alpha was 1e-08 to 1e-07 M throughout.
Regarding `COCc1cccc(-n2nnc3cnc(Nc4ccc(C(=O)N5CCN(C)CC5)cc4)nc32)c1` [Compound 103], the IC50 on GSK3β and at GSK3alpha was under 1e-08 M each time.
As to `COCc1cccc(-n2nnc3cnc(Nc4ccc(C(=O)NCCN5CCOCC5)cc4)nc32)c1` [Compound 104], the IC50 on GSK3β and on GSK3alpha was under 1e-08 M in each case.
Take `COCc1cccc(-n2nnc3cnc(Nc4ccc(OCCN5CCN(C)CC5)cc4)nc32)c1` [Compound 105]: the IC50 at GSK3β and at GSK3alpha was 1e-08 to 1e-07 M each time.
Turning to `COCc1cccc(-n2nnc3cnc(Nc4ccc(OCCCN5CCN(C)CC5)cc4)nc32)c1` [Compound 106], the results for the IC50 on GSK3β and on GSK3alpha were 1e-08 M and under 1e-08 M, respectively.
The corresponding values for `COCCOCc1cccc(-n2nnc3cnc(Nc4ccc(N5CCN(C)CC5)cc4)nc32)c1` [Compound 108] are under 1e-08 M and 1e-08 to 1e-07 M.
The corresponding values for `COCCOCc1cccc(-n2nnc3cnc(Nc4ccc(CN5CCN(C)CC5)cc4)nc32)c1` [Compound 109] are 1e-08 to 1e-07 M and 1e-08 to 1e-07 M.
The matching figures for `COCCOCc1cccc(-n2nnc3cnc(Nc4ccc(CN5CCC(O)CC5)cc4)nc32)c1` [Compound 110]: 1e-08 to 1e-07 M and 1e-08 to 1e-07 M.
Consider `COCCOCc1cccc(-n2nnc3cnc(Nc4ccc(C(=O)N5CCN(C)CC5)cc4)nc32)c1` [Compound 111], for which the IC50 at GSK3β and on GSK3alpha was under 1e-08 M each time.
For the molecule `COCCOCc1cccc(-n2nnc3cnc(Nc4ccc(C(=O)NCCN5CCOCC5)cc4)nc32)c1` [Compound 112], the IC50 at GSK3β and at GSK3alpha was under 1e-08 M throughout.
Consider `COCCOCc1cccc(-n2nnc3cnc(Nc4ccc(OCCCN5CCN(C)CC5)cc4)nc32)c1` [Compound 113], for which the IC50 was 1e-08 to 1e-07 M on GSK3β and 1e-08 M on GSK3alpha.
The matching figures for `NCc1cccc(-n2nnc3cnc(Nc4cccc(-c5cnco5)c4)nc32)c1` [Compound 114]: under 1e-08 M and under 1e-08 M.
The corresponding values for `CC(=O)NCc1cccc(-n2nnc3cnc(Nc4cccc(-c5nnnn5C)c4)nc32)c1` [Compound 116] are under 1e-08 M and under 1e-08 M.
Regarding `CC(=O)NCc1cccc(-n2nnc3cnc(Nc4cccc(-c5ccnc(N)n5)c4)nc32)c1` [Compound 117], the IC50 at GSK3β is over 1e-09 M; at GSK3alpha it was under 1e-08 M.
The corresponding values for `CC(C)CC(=O)NCc1cccc(-n2nnc3cnc(Nc4cccc(-c5cnco5)c4)nc32)c1` [Compound 120] are 1e-08 to 1e-07 M and 1e-08 to 1e-07 M.
Take `CC(C)CC(=O)NCc1cccc(-n2nnc3cnc(Nc4cccc(-c5ccnc(N)n5)c4)nc32)c1` [Compound 121]: the IC50 at GSK3β was under 1e-08 M; at GSK3alpha it was 1e-08 M.
The corresponding values for `COCC(=O)NCc1cccc(-n2nnc3cnc(Nc4ccc(-c5cnco5)cc4)nc32)c1` [Compound 123] are under 1e-08 M and under 1e-08 M.
The corresponding values for `CCOC(=O)NCc1cccc(-n2nnc3cnc(Nc4cccc(-c5cnco5)c4)nc32)c1` [Compound 125] are under 1e-08 M and under 1e-08 M.
The matching figures for `COc1cccc(-n2nnc3cnc(Nc4cccc(-c5nnn[nH]5)c4)nc32)c1` [Compound 127]: 1e-08 to 1e-07 M and under 1e-08 M.
For the molecule `COc1cccc(-n2nnc3cnc(Nc4cccc(-c5nnnn5C)c4)nc32)c1` [Compound 128], the IC50 at GSK3β and at GSK3alpha was under 1e-08 M in each case.
With `COc1cccc(-n2nnc3cnc(Nc4cccc(N5CCN(C)CC5)c4)nc32)c1` [Compound 129], the IC50 on GSK3β and at GSK3alpha was 1e-08 to 1e-07 M in each case.
Turning to `COCCOc1cccc(-n2nnc3cnc(Nc4ccc(N5CCN(C)CC5)cc4)nc32)c1` [Compound 130], the IC50 at GSK3β and on GSK3alpha was 1e-08 to 1e-07 M in each case.
With `COCCOc1cccc(-n2nnc3cnc(Nc4ccc(CN5CCN(C)CC5)cc4)nc32)c1` [Compound 131], the IC50 on GSK3β and at GSK3alpha was 1e-08 to 1e-07 M throughout.
On to `COCCOc1cccc(-n2nnc3cnc(Nc4ccc(C(=O)N5CCN(C)CC5)cc4)nc32)c1` [Compound 133], for which the IC50 at GSK3β is 1e-08 to 1e-07 M; at GSK3alpha, under 1e-08 M.
The corresponding values for `COCCOc1cccc(-n2nnc3cnc(Nc4ccc(C(=O)NCCN5CCOCC5)cc4)nc32)c1` [Compound 134] are 1e-08 to 1e-07 M and under 1e-08 M.
In the case of `COCCOc1cccc(-n2nnc3cnc(Nc4ccc(OCCCN5CCN(C)CC5)cc4)nc32)c1` [Compound 135], the IC50 at GSK3β and at GSK3alpha was 1e-08 to 1e-07 M throughout.
On to `O=S(=O)(NCCNc1ncccn1)c1cccc(Nc2ncc3nnn(-c4cccc(F)c4)c3n2)c1` [Compound 136], for which the IC50 at GSK3β and on GSK3alpha was 1e-08 to 1e-07 M throughout.
For the molecule `Fc1cccc(-n2nnc3cnc(Nc4ccc(-c5nn[nH]n5)cc4)nc32)c1` [Compound 138], the IC50 on GSK3β and at GSK3alpha was under 1e-08 M each time.
